In patent US20160251403A1, “PEPTIDE COMBINATIONS AND USES THEREOF IN TREATING DUST MITE ALLERGY” (ALK-ABELLO A/S, priority 2013, published 2016):
Changes are numbered by the printed parent chain. No end group written: not given here.

Key:
DQA10102-DQB10602 = assay: Competitive MHC class II binding assay, DQA10102-DQB10602; conditions: read-out: HLA-DQA10102-DQB10602; positive binding at cutoff 1000 nM
DQA10501-DQB10201 = DQA10501-DQB10201 (Homo sapiens, UniProt P01909+P01920, A45G/A70V/D89A/E106A/E77G/E98D/H199R/L107V/N214S/P84L/P87L/T103K/T109R/T172A/T60S/V78E/V99I/Y58L/Y62S/Y69I/Y79F); assay: Competitive MHC class II binding assay, DQA10501-DQB10201
[1] = Solubility of peptides in aqueous solutions at different pH (visual inspection, OD, HPLC); type: physicochemical; conditions: pH 7, visual inspection
Source text: This example describes modifications of parent peptides to improve the aqueous solubility, in particular to increase the solubility in an aqueous solution having pH in a physiologically acceptable range, e.g. from 6 to 8. Solubility is closely related to the ratio between hydrophilic and hydrophobic amino acid residues and the net charge state of the peptide. Peptides have zero net charge at pH=pI, and would be expected to show the lowest solubility at this pH. […] The solubility of these peptides was increased at pH values outside the physiological range (data not shown).
Peptides were tested for their ability to dissolve in aqueous solutions at different pH values. In short, each of the peptides were dissolved in water (pH about 5-6), hydrochloride solution at pH 2 (10 mM HCl), acetate buffer with pH 5 (20 mM acetate and 140 mM sodium chloride), phosphate buffer with pH 7 (20 mM phosphate and 140 mM sodium chloride) or bistrispropate buffer with pH 9 (20 mM bitrispropane and 140 mM sodium chloride, respectively, to produce a final molar concentration of the peptide of about 0.25 mM or 1 mM. Optionally, about 20% DMSO may be part of the solution. For comparison reasons, peptides were also dissolved in acetonitrile or DMSO. The solutions were inspected visually before and after centrifugation for turbidity, presence of particles/aggregates. In addition, presence of turbidity/particles/aggregates were detected by optical density (OD), but might also be detected by size-exclusion chromatography. Sub-visual particles may also be detected by dynamic light scattering (DLS) analysis. The solubility and stability of each peptide were also investigated using HPLC, e.g. RP-HPLC. For example, each of the solutions were injected onto the HPLC and the peak height or peak area of each of the peptides were compared to the corresponding peptide of a chromatogram of peptides dissolved in acetonitrile or DMSO—as peptides were assumed to be fully dissolved and stable in these solvents.

DRB3_0101 = DRB3_0101 (Homo sapiens, UniProt P01903+P79483); assay: Competitive MHC class II binding assay, DRB3_0101
DRB1_0301 = DRB1_0301 (Homo sapiens, UniProt P01903+P01911, A100K/A102G/A103R/A169T/F55Y/I96L/K41T/L162R/M171V/P40S/Q125H/Q178H/Q39Y/R42S/S66N/T106N/T262R/W38E/Y61H); assay: Competitive MHC class II binding assay, DRB1_0301
DQA10401-DQB10402 = assay: Competitive MHC class II binding assay, DQA10401-DQB10402
DRB3_0202 = DRB3_0202 (Homo sapiens, UniProt P01903+P79483, A212P/D57E/F66Y/L67A/R103Q/R218S/R40L/S89Y/T80R/V86D/Y55F/Y59H); assay: Competitive MHC class II binding assay, DRB3_0202
DRB1_0405 = DRB1_0405 (Homo sapiens, UniProt P01903+P01911, A100R/A169T/D86S/F76Y/I96L/K127E/L162R/M171V/N62H/P40V/Q125Y/R42H/S133A/S149N/S66Y/V115G/V209L/W38E); assay: Competitive MHC class II binding assay, DRB1_0405
DRB1_1201 = DRB1_1201 (Homo sapiens, UniProt P01903+P01911, A100R/A169T/D57E/D86V/F55L/H45Y/K41T/L162R/M171V/P40S/Q125H/Q178H/Q39Y/Q99D/R42G/S66L/T262R/V114A/V67L/W38E/Y59H/Y61H/Y89S); assay: Competitive MHC class II binding assay, DRB1_1201
DRB1_0101 = DRB1_0101 (Homo sapiens, UniProt P01903+P01911, A100R/D57E/F55L/F60I/F76Y/I96L/L162R/M171V/P40L/Q125E/R42F/V115G/Y59C); assay: Competitive MHC class II binding assay, DRB1_0101;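 further: competition against a radiolabeled probe peptide (0.1–1 nM) for purified HLA class II protein over 2–4 days, bound counts read after antibody capture, six competitor levels across 100,000-fold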
DRB1_1302 = DRB1_1302 (Homo sapiens, UniProt P01903+P01911, A100E/A169T/K41T/L162R/M171V/P40S/Q125H/Q178H/Q39Y/Q99D/R42S/S66N/T262R/V115G/W38E/Y61H); assay: Competitive MHC class II binding assay, DRB1_1302;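 further: purified HLA class II protein incubated two to four days with a radiolabeled reference binder and test peptide at six concentrations over a 100,000-fold range, complex-bound radioactivity counted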
DRB1_1501 = DRB1_1501 (Homo sapiens, UniProt P01903+P01911); assay: Competitive MHC class II binding assay, DRB1_1501
DRB1_0701 = DRB1_0701 (Homo sapiens, UniProt P01903+P01911, A100R/A102G/A103Q/D57E/D86V/E43K/F76Y/K127E/L162R/M171V/P40G/Q125H/Q99D/R33Q/R42Y/R54Q/S133A/S66F/T210M/V115G/Y107V/Y59L/Y89S); assay: Competitive MHC class II binding assay, DRB1_0701;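 further: displacement of a radiolabeled reference peptide from purified HLA class II protein, with complex-bound radioactivity counted after 2–4 days of incubation and six concentrations spanning a 100,000-fold range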
DPA10103-DPB10402 = molecular target: T1, DPA10103-DPB10402 (Homo sapiens, UniProt P04440+P20036, A65V/A84D/A85E/L207M); assay: Competitive MHC class II binding assay, DPA10103-DPB10402
T1 sequence (P20036 29-260): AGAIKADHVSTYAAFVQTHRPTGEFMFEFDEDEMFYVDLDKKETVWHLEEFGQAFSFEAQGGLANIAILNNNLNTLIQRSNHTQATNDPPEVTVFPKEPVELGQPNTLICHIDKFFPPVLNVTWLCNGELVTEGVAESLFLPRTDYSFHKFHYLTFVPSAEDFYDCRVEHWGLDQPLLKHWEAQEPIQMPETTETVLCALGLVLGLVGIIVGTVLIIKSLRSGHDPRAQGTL
T1 sequence (P04440 30-258 A65V/A84D/A85E): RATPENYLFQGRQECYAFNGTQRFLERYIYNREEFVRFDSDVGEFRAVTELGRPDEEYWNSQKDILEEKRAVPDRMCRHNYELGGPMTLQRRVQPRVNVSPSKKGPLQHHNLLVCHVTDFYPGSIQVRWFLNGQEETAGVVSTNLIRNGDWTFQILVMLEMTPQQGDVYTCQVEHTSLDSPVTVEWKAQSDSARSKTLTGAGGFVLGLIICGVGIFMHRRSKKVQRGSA

DRB1_0802 = DRB1_0802 (Homo sapiens, UniProt P01903+P01911, A100R/A103L/A169T/F76Y/H45Y/I96F/K41T/L162R/M171V/P40S/Q125H/Q178H/Q39Y/Q99D/R218S/R42G/S66Y/V115G/W38E); assay: Competitive MHC class II binding assay, DRB1_0802
DQA10501-DQB10301 = DQA10501-DQB10301 (Homo sapiens, UniProt P01909+P01920); assay: Competitive MHC class II binding assay, DQA10501-DQB10301
DRB1_0401 = DRB1_0401 (Homo sapiens, UniProt P01903+P01911, A100K/A169T/F76Y/I96L/K127E/L162R/M171V/N62H/P40V/Q125Y/R42H/S133A/S149N/S66Y/V115G/V209L/W38E); assay: Competitive MHC class II binding assay, DRB1_0401
DPA10202-DPB10501 = molecular target: T2, DPA10202-DPB10501 (Homo sapiens, UniProt P04440+P20036, A42M/A65V/A84E/F191V/F64L/G113D/G114E/K142R/L158P/M116V/M62Q/P115A/Q81R/R125K/T114A/T199I/T259P/V234M); assay: Competitive MHC class II binding assay, DPA10202-DPB10501; conditions: positive binding at cutoff 1000 nM; read-out: HLA-DPA10202-DPB10501
T2 sequence (P04440 30-258 A65V/A84E/F64L/G113D/G114E/M116V/P115A/R125K/T199I/V234M): T1 sequence (P04440 30-258 A65V/A84D/A85E) with F35L, D55E, E56A, G84D, G85E, P86A, M87V, R96K, T170I, V205M
T2 sequence (P20036 29-260 A42M/F191V/K142R/L158P/M62Q/Q81R/T114A/T259P): T1 sequence (P20036 29-260) with A14M, M34Q, Q53R, T86A, K114R, L130P, F163V, T231P

DRB5_0101 = DRB5_0101 (Homo sapiens, UniProt P01903+Q30154); assay: Competitive MHC class II binding assay, DRB5_0101
DRB1_0901 = DRB1_0901 (Homo sapiens, UniProt P01903+P01911, A100R/A103E/D57H/D86V/F55Y/F60I/F76Y/I96F/K127E/L162R/M171V/P40D/Q125H/Q99R/R33Q/R42F/S133A/S66N/T210M/V115G/W38K/Y107V/Y59G/Y89S); assay: Competitive MHC class II binding assay, DRB1_0901;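 further: displacement of a radiolabeled probe peptide from purified HLA class II protein, bound counts read after two to four days incubation, six concentrations spanning 100,000-fold, unlabeled probe as reference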
DRB4_0101 = DRB4_0101 (Homo sapiens, UniProt P01903+P13762, G164S); assay: Competitive MHC class II binding assay, DRB4_0101
DQA10301-DQB10302 = DQA10301-DQB10302 (Homo sapiens, UniProt P01909+P01920, A209T/A45G/C70Q/D89A/DUP78-78/E183D/E77G/F237L/G63E/H199R/I129T/K197E/L178F/L74F/L98V/Q57E/Q76R/S185I/S97I/T217I/T49S/V73L/Y58L); assay: Competitive MHC class II binding assay, DQA10301-DQB10302

Row | Sequence | IC50 (DQA10102-DQB10602) [nM] | IC50 (DRB3_0101) [nM] | IC50 (DRB3_0202) [nM] | IC50 (DRB1_0101) [nM] | IC50 (DRB1_1302) [nM] | IC50 (DRB1_1501) [nM] | IC50 (DRB1_0701) [nM] | IC50 (DRB1_0802) [nM] | IC50 (DQA10501-DQB10301) [nM] | IC50 (DRB1_0401) [nM] | IC50 (DPA10202-DPB10501) [nM] | IC50 (DRB5_0101) [nM] | IC50 (DRB1_0901) [nM] | other results
1 | IEYIQQNGVVEERSYPYVAR [pep-075] | < 1000 | < 1000 | < 1000 | < 1000 | < 1000 |  |  |  |  |  |  |  |  | IC50 (DQA10501-DQB10201): < 1000 nM; binding to HLA Class II allele DQA10501-DQB10201 (DQA10501-DQB10201; as shown in Table 16a): binds to at least the same alleles as peptide 041; Solubility at pH 7 (visual inspection) [1]: Turbid; binding to HLA Class II allele DRB3_0101 (DRB3_0101; as shown in Table 16a): binds to at least the same alleles as peptide 041; IC50 (DRB1_0301): < 1000 nM; binding to HLA Class II allele DQA10401-DQB10402 (DQA10401-DQB10402; as shown in Table 16a): binds to at least the same alleles as peptide 041; IC50 (DQA10401-DQB10402; read-out: HLA-DQA10401-DQB10402, positive binding at cutoff 1000 nM): < 1000 nM; binding to HLA Class II allele DRB3_0202 (DRB3_0202; as shown in Table 16a): binds to at least the same alleles as peptide 041; IC50 (DRB1_0405): < 1000 nM; IC50 (DRB1_1201): < 1000 nM; binding to HLA Class II allele DRB1_1302 (DRB1_1302; as shown in Table 16a): binds to at least the same alleles as peptide 041
2 | NYSQIYPPNVNKIREA [HDM101A, reference compound] |  |  | < 1000 | < 1000 | < 1000 | < 1000 | < 1000 |  |  |  |  |  |  | IC50 (DPA10103-DPB10402): < 1000 nM
3 | VMGDDGVLASAIATHAKIRD [pep-099] | < 1000 |  |  | < 1000 | < 1000 |  |  | < 1000 | < 1000 | < 1000 | < 1000 | < 1000 | < 1000 | 
4 | VLASAIATHAKIRD [pep-012] |  | < 1000 |  | < 1000 |  |  | < 1000 |  | < 1000 |  | < 1000 | < 1000 | < 1000 | 
5 | GVLASAIATHAKIR [HDM26B, reference compound] |  |  | < 1000 | < 1000 | < 1000 | < 1000 | < 1000 | < 1000 | < 1000 | < 1000 | < 1000 | < 1000 | < 1000 | IC50 (DRB4_0101): < 1000 nM
6 | VMGDNGVLASAIATHAKIRD [pep-125] |  |  |  | < 1000 |  |  |  | < 1000 | < 1000 |  | < 1000 | < 1000 | < 1000 | IC50 (DQA10301-DQB10302): < 1000 nM
